The assay concerns the target T1, LRRK2 (endogenous, HiBit tagged) (Homo sapiens, UniProt Q5S007).
T1 construct: endogenous in cells; host or cells: HEK293 cells with HiBit knock-in at the endogenous LRRK2 locus, stably expressing firefly luciferase
Put plainly: Endogenous LRRK2 degradation assay, endogenous gene C-terminally HiBit-tagged in HEK293 cells (Nano-Glo Dual Luciferase). It is filed as cell-based. The source says: Exemplary Assay for Testing LRRK2 Degradation Driven by Exemplary Hetero-Bifunctional Compounds Designed to Target LRRK2
The assay measures the degradation of LRRK2 in cells where the C-terminus (3′) of the endogenous gene has been tagged with a HiBit sequence in HEK293 cells. The cells also express firefly luciferase, expressed from a Cytomegalovirus promoter and introduced into the HiBit tagged cells and stably expressed. The Nano-Glo® Dual Luciferase Reporter Assay System (Promega™, Madison, WI) was utilized.
Day 1—Preparation of Compound and Assay Plates. Two sets of plates were prepared: a triplicate set for the HiBit assay in white 384-well plates and a triplicate set of plate in black 384-well plates for the Alamar Blue cell viability assay. Briefly, the growth media (DMEM+Glutamax-10% fetal bovine serum-1% Penicillin-Streptomicin) from two T128 flasks was aspirated from the flasks. Cells were washed with Dulbecco's Phosphate Buffered Saline (dPBS) and aspirated. Trypsin (3 mL per flask) was added and the flasks were incubated for 2-3 minutes.
Ten mL of OptiMEM-10% fetal bovine-1% penicillin-streptomycin (hereinafter, “OptiMEM media”) was added to the flask and the cells and transferred to a 50 mL conical tube. A cell count (25 ul of cell into Effendorf vial+25 ul of Trypan Blue Stain) was performed and the cell density adjusted to 15,000 cell/45 μl/well (3.33×10^5/mL) in OptiMEM media.
Fourty-five microliters of the cell suspension (15,000 cells) was aliquoted to each well of the white 384-well plate. The plates incubated at room temperature for 10 minutes before being placed in the 37° C.+5% CO2 incubator overnight
Day 2—Compound Treatment. Exemplary compounds were prepared at a 1 mM starting concentration and 1:3 serial dilution for 11 points CRC prepared and stored in the freezer. The Master Compound Plate was thawed overnight at room temperature. DMSO (20 μL) was added into column 24 of the Master Compound Plate for negative control and 20 μL of 300 μM of Compound 4 in column 23 as positive control.
Intermediate Compound Plate with 4% DMSO in OptiMEM Media. DMSO was added to warm OptiMEM media to achieve a 4% DMSO solution (approximately 50 mL/plate). One-hundred microliters of the OptiMEM-4% DMSO was aliquoted to each well of 384-Well Deep Well Microplates.
The Master Compound Plate and the Intermediate Compound Plate were spun down.
One microliter of compound from the Master Compound Plate was transferred into the Intermediate plate (a 1:100 dilution). The diluted mixture was mixed and 5 μL transferred into the assay plate (a 1:10 dilution) for the final starting concentration of 1 μM. The Treated Assay plates were incubated for 24 hours at 37° C.+5% CO2. The Master Compound Plate was sealed and store at room temperature for a second run that was performed within a week.
Day 3—HiBit Assay. Five microliters of Alamar Blue was added to each well of the black 384-well plates. The plates were incubated for 2 hours in the incubator (37° C.+5% CO2) and at room temperature for one hour. Fluorescence of each plate was read on a plated reader for the Alamar Blue viability assay.
One set of white assay plates was warmed to room temperature (45 minute).
The One Glo luciferase mixture was prepared. The media from white 384-well assay plates was aspirated. Twenty-five μL of the One Glo luciferase mixture was added to each well of the assay plates. The plates were incubated on the bench (room temperature) for 45 minutes, including 10 minutes of shaking at 700 rpm. The luminescence of each plate was read on a plate reader.
1:100 DLR substrate and 1:100 LgBiT Protein dilution were added to the Promega Stop and Glo buffer and mixed just before addition to assay plates. Twenty-five microliters of Stop and Glo mixture was added to each well. Assay plates incubated for at least 45 minutes, including 10 minutes of shaking at 700 rpm. The luminescence of each plate was read on a plate reader.
Analysis of LRRK2 HiBit Screening assays. […]

[1] abbreviates: endogenous HiBit-tagged LRRK2 in HEK293 cells, 24 hours treatment, read-out: Endogenous WT DC50.
Where [2] appears, read: endogenous HiBit-tagged LRRK2 in HEK293 cells, 24 hours treatment, read-out: Endogenous WT Dmax.
The mark [3] stands for this setting: endogenous HiBit-tagged LRRK2 in HEK293 cells, 24 hours treatment, read-out: **Endogenous WT Dmax (%).
The mark [4] stands for this setting: endogenous HiBit-tagged LRRK2 in HEK293 cells, 24 hours treatment, read-out: *Endogenous WT DC50.

Here are results for 12 compounds from patent US12559506B2, “Indazole based compounds and associated methods of use” (Arvinas Operations, Inc., priority 2021, dated 2026).

Read-outs that look alike come from different tables or passages of the source.

T1 sequence (Q5S007 whole entry): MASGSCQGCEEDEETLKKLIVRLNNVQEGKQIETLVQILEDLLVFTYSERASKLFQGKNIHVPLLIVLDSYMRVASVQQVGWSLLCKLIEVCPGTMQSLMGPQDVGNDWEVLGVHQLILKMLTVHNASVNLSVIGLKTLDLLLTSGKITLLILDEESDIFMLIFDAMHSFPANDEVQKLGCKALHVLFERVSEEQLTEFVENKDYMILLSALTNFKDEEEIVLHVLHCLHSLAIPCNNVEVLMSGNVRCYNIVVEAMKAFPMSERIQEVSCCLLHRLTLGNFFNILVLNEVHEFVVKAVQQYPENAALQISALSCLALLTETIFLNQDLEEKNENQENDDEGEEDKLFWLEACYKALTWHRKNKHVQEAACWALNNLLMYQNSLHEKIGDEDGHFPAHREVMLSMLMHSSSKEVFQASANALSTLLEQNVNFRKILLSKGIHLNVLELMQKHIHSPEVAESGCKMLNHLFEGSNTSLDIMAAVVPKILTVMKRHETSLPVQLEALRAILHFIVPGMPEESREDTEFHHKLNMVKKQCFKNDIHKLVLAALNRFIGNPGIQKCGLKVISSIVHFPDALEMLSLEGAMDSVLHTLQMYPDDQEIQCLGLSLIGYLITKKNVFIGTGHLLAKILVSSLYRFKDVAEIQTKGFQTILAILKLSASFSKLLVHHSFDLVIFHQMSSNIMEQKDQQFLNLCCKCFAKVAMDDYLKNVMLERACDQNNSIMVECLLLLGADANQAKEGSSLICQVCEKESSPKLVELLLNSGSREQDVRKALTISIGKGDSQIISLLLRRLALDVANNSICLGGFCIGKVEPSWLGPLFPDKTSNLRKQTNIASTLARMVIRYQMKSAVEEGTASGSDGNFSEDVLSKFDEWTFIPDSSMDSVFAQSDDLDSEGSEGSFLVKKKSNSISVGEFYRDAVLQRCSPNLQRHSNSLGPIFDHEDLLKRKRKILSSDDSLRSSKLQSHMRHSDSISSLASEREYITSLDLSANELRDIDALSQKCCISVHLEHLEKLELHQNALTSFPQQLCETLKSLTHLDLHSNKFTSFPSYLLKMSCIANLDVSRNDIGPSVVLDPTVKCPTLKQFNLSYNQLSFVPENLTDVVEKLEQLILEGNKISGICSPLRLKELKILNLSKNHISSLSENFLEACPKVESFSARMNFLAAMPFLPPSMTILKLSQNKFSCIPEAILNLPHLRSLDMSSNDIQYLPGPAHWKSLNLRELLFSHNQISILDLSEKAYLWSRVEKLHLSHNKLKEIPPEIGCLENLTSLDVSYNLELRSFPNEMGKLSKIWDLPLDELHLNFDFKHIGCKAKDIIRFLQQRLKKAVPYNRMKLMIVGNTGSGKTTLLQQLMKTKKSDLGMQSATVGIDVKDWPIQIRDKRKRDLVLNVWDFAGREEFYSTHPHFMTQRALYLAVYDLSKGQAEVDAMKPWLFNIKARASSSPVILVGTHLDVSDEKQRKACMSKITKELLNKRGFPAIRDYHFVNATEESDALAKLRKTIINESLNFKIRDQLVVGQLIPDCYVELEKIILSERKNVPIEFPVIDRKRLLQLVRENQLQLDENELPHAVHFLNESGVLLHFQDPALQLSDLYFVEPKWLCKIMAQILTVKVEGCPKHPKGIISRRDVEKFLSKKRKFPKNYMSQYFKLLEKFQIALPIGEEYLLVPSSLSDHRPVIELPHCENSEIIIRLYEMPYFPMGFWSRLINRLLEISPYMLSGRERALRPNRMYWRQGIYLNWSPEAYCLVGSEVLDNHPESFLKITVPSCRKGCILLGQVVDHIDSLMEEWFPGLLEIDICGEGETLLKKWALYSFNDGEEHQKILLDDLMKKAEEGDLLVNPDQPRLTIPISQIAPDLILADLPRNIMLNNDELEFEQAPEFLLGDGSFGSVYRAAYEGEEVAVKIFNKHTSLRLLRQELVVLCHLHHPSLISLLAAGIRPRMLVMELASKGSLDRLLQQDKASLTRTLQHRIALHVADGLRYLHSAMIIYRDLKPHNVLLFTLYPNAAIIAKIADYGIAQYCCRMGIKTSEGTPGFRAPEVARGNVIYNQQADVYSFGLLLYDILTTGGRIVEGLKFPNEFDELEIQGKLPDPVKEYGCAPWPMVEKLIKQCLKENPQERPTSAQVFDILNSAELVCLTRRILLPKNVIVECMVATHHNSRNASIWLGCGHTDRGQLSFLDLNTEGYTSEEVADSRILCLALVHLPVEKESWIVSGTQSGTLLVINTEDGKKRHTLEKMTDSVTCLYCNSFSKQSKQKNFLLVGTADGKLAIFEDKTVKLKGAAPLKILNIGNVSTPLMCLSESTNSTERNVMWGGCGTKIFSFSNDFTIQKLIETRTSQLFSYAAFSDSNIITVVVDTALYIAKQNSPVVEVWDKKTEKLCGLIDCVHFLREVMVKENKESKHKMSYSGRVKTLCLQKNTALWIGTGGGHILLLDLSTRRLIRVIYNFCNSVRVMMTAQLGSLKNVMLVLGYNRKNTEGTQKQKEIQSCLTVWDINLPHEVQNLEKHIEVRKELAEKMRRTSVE

What is called Dmax is the greatest extent of degradation seen. Usually DC50 stands for the concentration at which degradation of the target reaches its halfway point. Consider `C[C@H]1CN(c2cc(-c3[nH]nc4ccc(OC5(C)CC5)cc34)ncn2)CCN1CCN1CCC(C(=O)N2CCN(c3ccc4c(c3)C(=O)N(C3CCC(=O)NC3=O)C4=O)CC2)CC1` (stereo partly drawn) [Compound 58, 2-(2,6-dioxopiperidin-3-yl)-5-[4-(1-{2-[(2S)-2-methyl-4-{6-[5-(1-methylcyclopropoxy)-2H-indazol-3-yl]pyrimidin-4-yl}piperazin-1-yl]ethyl}piperidine-4-carbonyl)piperazin-1-yl]-2,3-dihydro-1H-isoindole-1,3-dione], for which the Dmax (endogenous HiBit-tagged LRRK2 in HEK293 cells, 24 hours, read-out: **Endogenous WT Dmax (%)) lay in the range of 50 to 70%. Moreover, under “endogenous HiBit-tagged LRRK2 in HEK293 cells, 24 hours, read-out: *Endogenous WT DC50”, the DC50 was less than 10 nM.
Take `CC1(Oc2ccc3n[nH]c(-c4cc(N5CCC(O[C@H]6CC[C@H](CN7CCN(c8ccc9c(c8F)CN(C8CCC(=O)NC8=O)C9=O)CC7)CC6)CC5)ncn4)c3c2)CC1` (stereo partly drawn) [Compound 213, 3-[4-fluoro-5-[4-[[4-[[1-[6-[5-(1-methylcyclopropoxy)-2H-indazol-3-yl]pyrimidin-4-yl]-4-piperidyl]oxy]cyclohexyl]methyl]piperazin-1-yl]-1-oxo-isoindolin-2-yl]piperidine-2,6-dione]: the DC50 under setting [1] was less than 10 nM. Moreover, under setting [2], the Dmax is no less than 70%.
In the case of `COc1c(N2CCC(CN3CCN(CC4CCN(c5cc(-c6n[nH]c7ccc(OC8(C)CC8)cc67)ncn5)CC4)[C@@H](C)C3)CC2)ccc2c1CN(C1CCC(=O)NC1=O)C2=O` (stereo partly drawn) [Compound 256, 3-[4-methoxy-5-(4-{[(3S)-3-methyl-4-[(1-{6-[5-(1-methylcyclopropoxy)-1H-indazol-3-yl]pyrimidin-4-yl}piperidin-4-yl)methyl]piperazin-1-yl]methyl}piperidin-1-yl)-1-oxo-2,3-dihydro-1H-isoindol-2-yl]piperidine-2,6-dione], under setting [1], the DC50 is less than 10 nM. Further, under setting [2], the Dmax is 50 to 70%.
For `CC1(Oc2ccc3n[nH]c(-c4cc(N5CC6(CCN([C@H]7C[C@H](OC8CCN(c9ccc%10c(c9F)CN(C9CCC(=O)NC9=O)C%10=O)CC8)C7)CC6)C5)ncn4)c3c2)CC1` (stereo partly drawn) [Compound 304, 3-(4-fluoro-1-oxo-5-{4-[(1r,3r)-3-(2-{6-[5-(1-methylcyclopropoxy)-2H-indazol-3-yl]pyrimidin-4-yl}-2,7-diazaspiro[3.5]nonan-7-yl)cyclobutoxy]piperidin-1-yl}-2,3-dihydro-1H-isoindol-2-yl)piperidine-2,6-dione], the Dmax under setting [3] fell in the range of 50 to 70%. The 50% degradation concentration (DC50) under setting [4] was less than 10 nM.
With `CC1(Oc2cc3c(-c4cc(N5CCC(CN6CCC(F)(CN7CCN(c8ccc9c(c8F)CN(C8CCC(=O)NC8=O)C9=O)CC7)CC6)CC5)ncn4)n[nH]c3cc2F)CC1` (stereo not drawn) [Compound 199, 3-{4-fluoro-5-[4-({4-fluoro-1-[(1-{6-[6-fluoro-5-(1-methylcyclopropoxy)-1H-indazol-3-yl]pyrimidin-4-yl}piperidin-4-yl)methyl]piperidin-4-yl}methyl)piperazin-1-yl]-1-oxo-2,3-dihydro-1H-isoindol-2-yl}piperidine-2,6-dione], the Dmax (endogenous HiBit-tagged LRRK2, HEK293 cells, 24 hours, read-out: **Endogenous WT Dmax (%)) is no less than 70%. Further, the DC50 (endogenous HiBit-tagged LRRK2, HEK293 cells, 24 hours, read-out: *Endogenous WT DC50) was less than 10 nM.
For the compound `COc1c(N2CCC(O[C@H]3CC[C@H](CN4CCN(c5cc(-c6n[nH]c7cc(F)c(OC8(C)CC8)cc67)ncn5)CC4)CC3)CC2)ccc2c1CN(C1CCC(=O)NC1=O)C2=O` (stereo partly drawn) [Compound 280, 3-[4-methoxy-1-oxo-5-(4-{[(1r,4r)-4-[(4-{6-[6-fluoro-5-(1-methylcyclopropoxy)-1H-indazol-3-yl]pyrimidin-4-yl}piperazin-1-yl)methyl]cyclohexyl]oxy}piperidin-1-yl)-2,3-dihydro-1H-isoindol-2-yl]piperidine-2,6-dione], the Dmax under setting [3] fell in the range of 50 to 70%. Also, the DC50 under setting [4] was less than 10 nM.
As for `COc1c(N2CCC(CN3CCC(OC4CN(c5cc(-c6[nH]nc7ccc(OC8(C)CC8)cc67)ncn5)C4)CC3)CC2)ccc2c1CN(C1CCC(=O)NC1=O)C2=O` (stereo not drawn) [Compound 298, 3-{4-methoxy-5-[4-({4-[(1-{6-[5-(1-methylcyclopropoxy)-2H-indazol-3-yl]pyrimidin-4-yl}azetidin-3-yl)oxy]piperidin-1-yl}methyl)piperidin-1-yl]-1-oxo-2,3-dihydro-1H-isoindol-2-yl}piperidine-2,6-dione], the Dmax under setting [3] was in the range of 50 to 70%. The DC50 under setting [4] is less than 10 nM.
Consider `CC1(Oc2ccc3[nH]nc(-c4cc(N5CCC(CN6CCN(CC7CCN(c8c(F)cc9c(c8F)CN(C8CCC(=O)NC8=O)C9=O)CC7)CC6)CC5)ncn4)c3c2)CC1` (stereo not drawn) [Compound 219, 3-[4,6-difluoro-5-[4-[[4-[[1-[6-[5-(1-methylcyclopropoxy)-1H-indazol-3-yl]pyrimidin-4-yl]-4-piperidyl]methyl]piperazin-1-yl]methyl]-1-piperidyl]-1-oxo-isoindolin-2-yl]piperidine-2,6-dione], for which the 50% degradation concentration (DC50) under setting [1] is less than 10 nM. Further, the Dmax under setting [2] lay in the range of 50 to 70%.
For `COc1cc(N2CCC(CN3CCC(F)(CN4CCN(c5cc(-c6n[nH]c7ccc(OC8(C)CC8)cc67)ncn5)CC4)CC3)CC2)cc2c1C(=O)N(C1CCC(=O)NC1=O)C2` (stereo not drawn) [Compound 216, 3-{5-[4-({4-fluoro-4-[(4-{6-[5-(1-methylcyclopropoxy)-1H-indazol-3-yl]pyrimidin-4-yl}piperazin-1-yl)methyl]piperidin-1-yl}methyl)piperidin-1-yl]-7-methoxy-1-oxo-2,3-dihydro-1H-isoindol-2-yl}piperidine-2,6-dione] the same measures were less than 10 nM and no less than 70%.
As to `CC1(Oc2ccc3[nH]nc(-c4cc(N5CCC(CC6(F)CCN(CC7CCN(c8ccc9c(c8F)CN(C8CCC(=O)NC8=O)C9=O)CC7)CC6)CC5)ncn4)c3c2)CC1` (stereo not drawn) [Compound 206, 3-[4-fluoro-5-[4-[[4-fluoro-4-[[1-[6-[5-(1-methylcyclopropoxy)-1H-indazol-3-yl]pyrimidin-4-yl]-4-piperidyl]methyl]-1-piperidyl]methyl]-1-piperidyl]-1-oxo-isoindolin-2-yl]piperidine-2,6-dione], under setting [1], the DC50 is less than 10 nM. Besides, under setting [2], the Dmax is no less than 70%.
For the compound `C[C@@H]1CN(CC2CCN(c3cc(-c4n[nH]c5ccc(OC6(C)CC6)cc45)ncn3)CC2)C[C@H](C)N1CC1CCN(c2ccc3c(c2F)CN(C2CCC(=O)NC2=O)C3=O)CC1` (stereo partly drawn) [Compound 307, 3-[5-(4-{[(2R,6S)-2,6-dimethyl-4-[(1-{6-[5-(1-methylcyclopropoxy)-1H-indazol-3-yl]pyrimidin-4-yl}piperidin-4-yl)methyl]piperazin-1-yl]methyl}piperidin-1-yl)-4-fluoro-1-oxo-2,3-dihydro-1H-isoindol-2-yl]piperidine-2,6-dione], the Dmax under setting [3] was in the range of 50 to 70%. In addition, the DC50 under setting [4] is less than 10 nM.
Regarding `CC1(Oc2ccc3[nH]nc(-c4cc(N5CCC(OCCN6CCC7(CN(c8ccc9c(c8F)CN(C8CCC(=O)NC8=O)C9=O)C7)C(F)(F)C6)CC5)ncn4)c3c2)CC1` (stereo not drawn) [Compound 362, 3-[5-(5,5-difluoro-7-{2-[(1-{6-[5-(1-methylcyclopropoxy)-1H-indazol-3-yl]pyrimidin-4-yl}piperidin-4-yl)oxy]ethyl}-2,7-diazaspiro[3.5]nonan-2-yl)-4-fluoro-1-oxo-2,3-dihydro-1H-isoindol-2-yl]piperidine-2,6-dione], under setting [1], the DC50 was less than 10 nM. Also, the greatest degradation seen (Dmax) under setting [2] lay within 50 to 70%.
